One experiment deals with human Smo (Homo sapiens (Human), UniProt Q99835). Nature of the experiment: Smo radioligand competition binding assay. The following applies: for inhibition at 0.05 µM: 0.05 μM test compound, read-out: Smo % inh. @ 0.05 μM. In a few lines:
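Membranes from HEK293 cells expressing surface human Smo 181-781 (40 μg protein/well) incubated 2 h at room temperature with test compound and tritiated Smo antagonist (3 nM), pH 7.5 Tris buffer; filtration and scintillation counting. Non-specific binding defined with 30 μM cold antagonist; IC50 from four-parameter sigmoidal fit.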
For orientation: Loss of bound radioactivity is the signal in a displacement assay; it reports binding, not function.

For another experiment, the system named is Gli-Luc/MEF cells. Description: Gli-Luc/MEF assay. The class given is cell-based, mouse. The following applies: Mus musculus, MEF; Shh-stimulated luciferase, 48 hours. In a few lines: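 Mouse embryonic fibroblasts from Gli-Luc transgenic mice (luciferase under Gli response element) dosed with compounds (final […], 3-fold series), then stimulated with recombinant mouse Shh at final 2 μg/mL. After 48 h at 37 °C, luminescence read by Bright-Glo; IC50 from inhibition of Shh-induced signal.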

human Smo, sequence (Q99835 181-787): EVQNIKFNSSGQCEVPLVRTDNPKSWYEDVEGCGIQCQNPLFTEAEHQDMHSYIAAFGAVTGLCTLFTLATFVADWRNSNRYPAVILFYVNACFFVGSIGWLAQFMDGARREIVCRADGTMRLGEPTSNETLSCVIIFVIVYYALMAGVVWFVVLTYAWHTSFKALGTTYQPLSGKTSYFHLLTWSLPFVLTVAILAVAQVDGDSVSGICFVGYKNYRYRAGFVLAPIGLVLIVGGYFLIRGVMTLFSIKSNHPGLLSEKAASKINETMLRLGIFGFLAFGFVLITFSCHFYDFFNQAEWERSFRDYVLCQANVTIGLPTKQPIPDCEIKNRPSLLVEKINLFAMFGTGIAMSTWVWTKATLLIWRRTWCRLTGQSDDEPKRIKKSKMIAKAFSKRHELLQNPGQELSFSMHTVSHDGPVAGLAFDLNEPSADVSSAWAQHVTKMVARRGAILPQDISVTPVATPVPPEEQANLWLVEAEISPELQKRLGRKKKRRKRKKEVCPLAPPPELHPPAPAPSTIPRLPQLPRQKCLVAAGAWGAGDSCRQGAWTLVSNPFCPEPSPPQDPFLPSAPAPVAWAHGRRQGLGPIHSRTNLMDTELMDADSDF

A word on the IC50: it is the concentration at which inhibition is half-maximal. Higher therefore signals lower potency. Consider `Cc1cccnc1-c1cc(N2CCC(C(=O)N3CCCC[C@H]3CO)CC2)ncc1Cl` [Example A-85, [(2S)-1-{[1-(5′-chloro-3-methyl-2,4′-bipyridin-2′-yl)piperidin-4-yl]carbonyl}piperidin-2-yl]methanol], for which, at human Smo, the IC50 came out at 42.4 nM and the inhibition at 0.05 µM turned out to be 92.7%. The molecule also displayed an IC50 with Gli-Luc/MEF cells of 116 nM.

On to `Cc1cccnc1-c1cc(N2CCC(C(=O)N3CCCC(O)C3CO)CC2)ncc1Cl` (stereo not drawn) [Example A-86, 1-{[1-(5′-chloro-3-methyl-2,4′-bipyridin-2′-yl)piperidin-4-yl]carbonyl}-2-(hydroxymethyl)piperidin-3-ol], for which, at human Smo, the IC50 stood at 112 nM and the inhibition at 0.05 µM was 81.5%. It took 116 nM to reach half-maximal inhibition with Gli-Luc/MEF cells (IC50).

For the molecule `Cc1cccnc1-c1cc(N2CCC(C(=O)NCCc3c[nH]cn3)CC2)ncc1Cl` [Example A-87, 1-(5′-chloro-3-methyl-2,4′-bipyridin-2′-yl)-N-[2-(1H-imidazol-4-yl)ethyl]piperidine-4-carboxamide], at human Smo, the 50% inhibitory concentration (IC50) turned out to be 134 nM and the inhibition at 0.05 µM turned out to be 81.8%. The same molecule displayed an IC50 with Gli-Luc/MEF cells of 123 nM.

Consider `Cc1cccnc1-c1cc(N2CCC(C(=O)Nc3cnn(C)n3)CC2)ncc1Cl` [Example A-88, 1-(5′-chloro-3-methyl-2,4′-bipyridin-2′-yl)-N-(2-methyl-2H-1,2,3-triazol-4-yl)piperidine-4-carboxamide], for which, on human Smo, the 50% inhibitory concentration (IC50) was found to be 49 nM and the inhibition at 0.05 µM worked out at 85.6%. In addition, half-maximal inhibition with Gli-Luc/MEF cells (IC50) was put at 53 nM.

Turning to `Cc1cccnc1-c1cc(N2CCC(C(=O)N[C@H]3CC[C@H](CO)CC3)CC2)ncc1Cl` [Example A-89, 1-(5′-chloro-3-methyl-2,4′-bipyridin-2′-yl)-N-[trans-4-(hydroxymethyl)cyclohexyl]piperidine-4-carboxamide], on human Smo, the IC50 is 28.5 nM and the inhibition at 0.05 µM came to 94.6%. In the experiment with Gli-Luc/MEF cells, this molecule gave a half-maximal inhibitory concentration (IC50) of 24.4 nM.

For `CC(C)(O)CC(=O)N1CCN(c2ccc(Cl)c(-c3ccccn3)n2)CC1` [Example A-90, 4-[4-(3-chloro-2,2′-bipyridin-6-yl)piperazin-1-yl]-2-methyl-4-oxobutan-2-ol], at human Smo, the IC50 is 111 nM and the inhibition at 0.05 µM stood at 82.5%. Besides, the IC50 in the experiment on Gli-Luc/MEF cells turned out to be 66.9 nM.

Consider `NS(=O)(=O)CC1CCN(c2ccc(Cl)c(-c3ccccn3)n2)CC1` [Example A-91, 1-[1-(3-chloro-2,2′-bipyridin-6-yl)piperidin-4-yl]methanesulfonamide], for which, on human Smo, the IC50 amounted to 26.3 nM and the inhibition at 0.05 µM stood at 92.7%. The same molecule gave an IC50 in the experiment with Gli-Luc/MEF cells of 28.6 nM.

Consider `CS(=O)(=O)CC1CCN(c2ncc(Cl)c(-c3ccccn3)n2)CC1` [Example A-92, 5-chloro-2-{4-[(methylsulfonyl)methyl]piperidin-1-yl}-4-pyridin-2-ylpyrimidine], for which the 50% inhibitory concentration (IC50) was 132 nM at human Smo and 59 nM in the experiment on Gli-Luc/MEF cells. Also, the inhibition at 0.05 µM on human Smo came to 79.8%.

As to `Cc1cccnc1-c1cc(N2CCN(C(=O)CCS(C)(=O)=O)CC2)ncc1Cl` [Example A-93, 5′-chloro-3-methyl-2′-{4-[3-(methylsulfonyl)propanoyl]piperazin-1-yl}-2,4′-bipyridine], on human Smo, the IC50 was determined as 9.84 nM and the inhibition at 0.05 µM worked out at 97.5%. Further, 12.4 nM corresponded to half-maximal inhibition in the experiment with Gli-Luc/MEF cells (IC50).

Turning to `Cc1cnc(-c2cc(N3CCC(O)CC3)ncc2Cl)c(C)c1` [Example A-94, 1-(5′-chloro-3,5-dimethyl-2,4′-bipyridin-2′-yl)piperidin-4-ol], on human Smo, the IC50 is 44.2 nM and the inhibition at 0.05 µM stood at 88%. The molecule further had an IC50 in the experiment with Gli-Luc/MEF cells of 28.4 nM.

`Cc1cccnc1-c1cc(N2CCC(NC(=O)CCS(C)(=O)=O)CC2)ncc1Cl` [Example A-95, N-[1-(5′-chloro-3-methyl-2,4′-bipyridin-2′-yl)piperidin-4-yl]-3-(methylsulfonyl)propanamide]: at human Smo, the IC50 was found to be 37 nM and the inhibition at 0.05 µM turned out to be 94%. This molecule had a concentration for half-maximal inhibition (IC50) in the experiment with Gli-Luc/MEF cells of 32 nM.

Values taken from US9056865B2, “Pyridine-2-derivatives as smoothened receptor modulators” (Pfizer Inc., priority 2010, dated 2015).
